{
  "source": "patent US10258235B2",
  "about": "“Method and device for the assessment of bowel function” (Purdue Pharma L.P., priority 2005, dated 2019)",
  "key": {"[1]": {"tested_on": "patients with severe chronic pain of tumor and non-tumor origin", "test": "Mean pain (0-100 NAS) during the last 7 days before each visit, clinical Phase II study", "format": "in vivo, human", "settings": "for Mean Pain, Mean V5 / Mean Pain, Mean V3: NAS 0-100; for Mean Pain, Mean V3: end of titration visit (V3, baseline before naloxone)", "method": "(§1) The method of the present invention and analog scales of the present invention were employed in a clinical Phase II study conducted in Europe.\n(§2) For some analyses, the last observation was carried forward for those ITT subjects who discontinued after Visit 4 (ITT/LOCF). In other instances, only the available data were used (ITT non-missing).\n(§3) The Per Protocol (PP) population included all randomized patients who completed the study (including the follow-up phase) without major protocol violations. […] Only deviations from the visit window of the maintenance phase visits (visit 4 and 5) were regarded as major protocol violations. Deviations from the other visits were regarded as minor protocol violations. […] 3. Primary Efficacy Variables\n(§4) a) Mean Pain during the last 7 days prior to each visit, based on the patient's twice-daily assessment of pain intensity using the 0-100 numerical analogue scale (NAS) (0=no pain and 100=worst imaginable pain). Mean Pain was calculated for each study visit as the mean value of the daily mean values of all patient's diary entries from the last 7 days. b) Mean bowel function: patient's assessment, at each study visit, of bowel function during the last 7 days prior to each visit. Mean bowel function was calculated from the mean of the three 0-100 NAS scores: ease of defecation (0=easy/no difficulty, 100=severe difficulty), feeling of incomplete bowel evacuation (0=not at all, 100=very strong), and judgment of constipation (0=not at all, 100=very strong). 4. Analgesic Efficacy Results"}, "[2]": {"tested_on": "patients with severe chronic pain of tumor and non-tumor origin", "settings": "for Mean Bowel Function Score, Mean V3: end of titration visit (V3, baseline before naloxone); for mean bowel function (±SD) at Visit 4: Visit 4 (after 1 week of naloxone); for mean bowel function (±SD) at the end of the maintenance phase: PP population", "method": "as §1, §2, §3, §4\nMean bowel function was calculated for each study visit from the mean of the three NAS values ease/difficulty of defecation, feeling of incomplete bowel evacuation and judgment of constipation.\nIn addition, two-sided 95% CIs (CI, confidence interval) for the difference in means between the treatment groups were provided. […] These analyses were performed for the ITT and PP populations.\nThe parameter estimates derived were taken to display a surface plot of the whole dose range investigated. Moreover, a contour plot of the bowel function with a granulation of 10 was performed."}},
  "note": "Several values for one entry are separate records, joined by “and”; a condition that tells them apart may be missing. Equal entries are not always repeated. Entries after “also recorded” stand apart in the source; their conditions may differ. Where two headings read alike, the source gives them in different places.",
  "data": [
    {"smiles": "C=CCN1CC[C@]23c4c5ccc(O)c4O[C@H]2C(=O)CC[C@@]3(O)[C@H]1C5", "note": "[Naloxone, naloxone]", "values": [
      {"measurement": "Mean Pain, Mean V5", "setting": "[1]; ITT non-missing, end of maintenance visit (V5, 4 weeks), naloxone 10 mg/day plus oxycodone 40-80 mg/day", "value": 37.2},
      {"measurement": "Mean Pain, Mean V5", "setting": "[1]; ITT non-missing, end of maintenance visit (V5, 4 weeks), naloxone 20 mg/day plus oxycodone 40-80 mg/day", "value": 37.5},
      {"measurement": "Mean Pain, Mean V5", "setting": "[1]; ITT non-missing, end of maintenance visit (V5, 4 weeks), naloxone 40 mg/day plus oxycodone 40-80 mg/day", "value": 38.7},
      {"measurement": "Mean Pain, Mean V3", "setting": "[1]; ITT non-missing, naloxone 10 mg/day group, oxycodone 40-80 mg/day", "value": 35.9},
      {"measurement": "Mean Pain, Mean V3", "setting": "[1]; ITT non-missing, naloxone 20 mg/day group, oxycodone 40-80 mg/day", "value": 39.8},
      {"measurement": "Mean Pain, Mean V3", "setting": "[1]; ITT non-missing, naloxone 40 mg/day group, oxycodone 40-80 mg/day", "value": 38.1},
      {"measurement": "Mean Pain, Mean V5", "setting": "[1]; PP, end of maintenance visit (V5), naloxone 10 mg/day plus oxycodone 40-80 mg/day", "value": 38.8},
      {"measurement": "Mean Pain, Mean V5", "setting": "[1]; PP, end of maintenance visit (V5), naloxone 20 mg/day plus oxycodone 40-80 mg/day", "value": 36.1},
      {"measurement": "Mean Pain, Mean V5", "setting": "[1]; PP, end of maintenance visit (V5), naloxone 40 mg/day plus oxycodone 40-80 mg/day", "value": 38.7},
      {"measurement": "Mean Pain, Mean V3", "setting": "[1]; PP, naloxone 10 mg/day group", "value": 38.0},
      {"measurement": "Mean Pain, Mean V3", "setting": "[1]; PP, naloxone 20 mg/day group", "value": 40.1},
      {"measurement": "Mean Pain, Mean V3", "setting": "[1]; PP, naloxone 40 mg/day group", "value": 39.0},
      {"measurement": "Analgesic efficacy / mean pain, active naloxone versus naloxone placebo (in words)", "setting": "[1]; end of maintenance, naloxone 10-40 mg/day added to oxycodone 40-80 mg/day", "value": "did not point to a difference in analgesic efficacy; also recorded: no evidence of changes in mean pain with varying amounts of naloxone"},
      {"measurement": "Mean Bowel Function Score, Mean V5", "setting": "[2]; ITT (non-missing), end of maintenance (V5, 4 weeks), naloxone 10 mg/day plus oxycodone 40-80 mg/day, NAS 0-100, higher = worse", "value": 40.3},
      {"measurement": "Mean Bowel Function Score, Mean V5", "setting": "[2]; ITT (non-missing), end of maintenance (V5, 4 weeks), naloxone 10 mg/day plus oxycodone 40-80 mg/day, NAS 0-100, higher = worse, listed as naloxone", "value": "40.3 (±23.09) and 40.3 (±23.1)"},
      {"measurement": "Mean Bowel Function Score, Mean V5", "setting": "[2]; ITT (non-missing), end of maintenance (V5, 4 weeks), naloxone 20 mg/day plus oxycodone 40-80 mg/day, NAS 0-100, higher = worse", "value": 31.3},
      {"measurement": "Mean Bowel Function Score, Mean V5", "setting": "[2]; ITT (non-missing), end of maintenance (V5, 4 weeks), naloxone 20 mg/day plus oxycodone 40-80 mg/day, NAS 0-100, higher = worse, listed as naloxone", "value": "31.3 (±25.82) and 31.3 (±25.8)"},
      {"measurement": "Mean Bowel Function Score, Mean V5", "setting": "[2]; ITT (non-missing), end of maintenance (V5, 4 weeks), naloxone 40 mg/day plus oxycodone 40-80 mg/day, NAS 0-100, higher = worse", "value": 26.1},
      {"measurement": "Mean Bowel Function Score, Mean V5", "setting": "[2]; ITT (non-missing), end of maintenance (V5, 4 weeks), naloxone 40 mg/day plus oxycodone 40-80 mg/day, NAS 0-100, higher = worse, listed as naloxone", "value": "26.1 (±25.08) and 26.1 (±25.1)"},
      {"measurement": "Mean Bowel Function Score, Mean V3", "setting": "[2]; ITT non-missing, naloxone 10 mg/day group, NAS 0-100, higher = worse", "value": 53.5},
      {"measurement": "Mean Bowel Function Score, Mean V3", "setting": "[2]; ITT non-missing, naloxone 20 mg/day group, NAS 0-100, higher = worse", "value": 51.3},
      {"measurement": "Mean Bowel Function Score, Mean V3", "setting": "[2]; ITT non-missing, naloxone 40 mg/day group, NAS 0-100, higher = worse", "value": 48.2},
      {"measurement": "Mean Bowel Function Score, Mean V5", "setting": "[2]; ITT/LOCF, end of maintenance visit (V5), naloxone 10 mg/day plus oxycodone 40-80 mg/day", "value": 40.1},
      {"measurement": "Mean Bowel Function Score, Mean V5", "setting": "[2]; ITT/LOCF, end of maintenance visit (V5), naloxone 20 mg/day plus oxycodone 40-80 mg/day", "value": 33.2},
      {"measurement": "Mean Bowel Function Score, Mean V5", "setting": "[2]; ITT/LOCF, end of maintenance visit (V5), naloxone 40 mg/day plus oxycodone 40-80 mg/day", "value": 26.5},
      {"measurement": "Mean Bowel Function Score, Mean V3", "setting": "[2]; ITT/LOCF, naloxone 10 mg/day group", "value": 53.6},
      {"measurement": "Mean Bowel Function Score, Mean V3", "setting": "[2]; ITT/LOCF, naloxone 20 mg/day group", "value": 49.9},
      {"measurement": "Mean Bowel Function Score, Mean V3", "setting": "[2]; ITT/LOCF, naloxone 40 mg/day group", "value": 47.7},
      {"measurement": "mean bowel function (±SD) at Visit 4", "setting": "[2]; ITT, naloxone 10 mg/day", "value": "42.1 (±25.53)"},
      {"measurement": "mean bowel function (±SD) at Visit 4", "setting": "[2]; ITT, naloxone 20 mg/day", "value": "34.2 (±30.04)"},
      {"measurement": "mean bowel function (±SD) at Visit 4", "setting": "[2]; ITT, naloxone 40 mg/day", "value": "27.9 (±22.68)"},
      {"measurement": "mean bowel function (±SD) at the end of follow-up", "setting": "[2]; ITT, end of two-week follow-up on oxycodone only, former 40 mg naloxone group", "value": "42.4 (±23.19)"},
      {"measurement": "mean bowel function (±SD) at the end of the maintenance phase", "setting": "[2]; naloxone 10 mg/day", "value": "39.4 (±23.44)"},
      {"measurement": "mean bowel function (±SD) at the end of the maintenance phase", "setting": "[2]; naloxone 20 mg/day", "value": "29.8 (±29.29)"},
      {"measurement": "mean bowel function (±SD) at the end of the maintenance phase", "setting": "[2]; naloxone 40 mg/day", "value": "29.6 (±28.34)"},
      {"measurement": "effect of adding controlled release naloxone to controlled release oxycodone on mean bowel function (in words)", "setting": "[2]; the two higher doses of naloxone (20 mg and 40 mg)", "value": "statistically significant improvement in mean bowel function"}
    ]}
  ]
}
